Structures can show the parent of a compound that is named as a salt.
tested on: Acinetobacter baumannii ATCC17961; assay: Antimicrobial susceptibility testing: 90% growth inhibitory concentration (IC90) determination; assay type: cell-based; conditions: Acinetobacter baumannii, ATCC17961, 16 h, 90% growth inhibitory concentration against Acinetobacter baumannii ATCC17961, Iso-Sensitest broth, OD 600 nm over 16 h; read-out: ATCC 17961 IC90
Summary of the method: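 Twofold serial dilutions (e.g. 10 to 0.0195 μM final) in Iso-Sensitest broth inoculated at ~5×10^5 CFU/mL, incubated at 35±2° C. OD600 read every minute for 16 h; IC90 is the concentration inhibiting 90% of growth during logarithmic phase.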

| Structure (SMILES) | IC90 [nM] |
| --- | --- |
| Cn1c(-c2cn(-c3ccc(N)cc3F)nc2C(F)(F)F)cnc1C(=O)Nc1ccc(C(=O)N2CCN(C(=O)N3CC[N+](CCCN)(CC(=O)O)CC3)CC2)c(Cl)c1 [Example 141, 2-[4-[4-[4-[[5-[1-(4-amino-2-fluoro-phenyl)-3-(trifluoromethyl)pyrazol-4-yl]-1-methyl-imidazole-2-carbonyl]amino]-2-chloro-benzoyl]piperazine-1-carbonyl]-1-(3-aminopropyl)piperazin-1-ium-1-yl]acetic acid. 1:1 2,2,2-trifluoroacetate] | 242 |
| Cn1c(-c2cn(-c3cc4[nH]c(CCN)cc4cn3)nc2C(F)(F)F)cnc1C(=O)Nc1ccc(C(=O)N2CCN(C(=O)[C@H]3CC[N@+](CC(=O)O)(CC4CNC4)CC3)CC2)c(Cl)c1 [Example 142, cis-2-[4-[4-[4-[[5-[1-[2-(2-aminoethyl)-1H-pyrrolo[3,2-c]pyridin-6-yl]-3-(trifluoromethyl)pyrazol-4-yl]-1-methyl-imidazole-2-carbonyl]amino]-2-chloro-benzoyl]piperazine-1-carbonyl]-1-(azetidin-3-ylmethyl)piperidin-1-ium-1-yl]acetic acid;formate] | 69.5 |
| CNC(=O)n1ccc2nc(-n3cc(-c4cnc(C(=O)Nc5ccc(C(=O)N6CCN(C(=O)[C@H]7CC[N@+](CC(=O)O)(CC8CNC8)CC7)CC6)c(Cl)c5)n4C)c(C(F)(F)F)n3)ccc21 [Example 143, cis-2-[1-(azetidin-3-ylmethyl)-4-[4-[2-chloro-4-[[1-methyl-5-[1-[1-(methylcarbamoyl)pyrrolo[3,2-b]pyridin-5-yl]-3-(trifluoromethyl)pyrazol-4-yl]imidazole-2-carbonyl]amino]benzoyl]piperazine-1-carbonyl]piperidin-1-ium-1-yl]acetic acid. 1:1 formate] | 682 |
| Cn1c(-c2cn(-c3ccc4[nH]c(CO)cc4n3)nc2C(F)(F)F)cnc1C(=O)Nc1ccc(C(=O)N2CCN(C(=O)N3CC[N+](CC(=O)O)(CC4CNC4)CC3)CC2)c(Cl)c1 [Example 144, 2-[1-(azetidin-3-ylmethyl)-4-[4-[2-chloro-4-[[1-methyl-5-[1-(2-methylol-1H-pyrrolo[3,2-b]pyridin-5-yl)-3-(trifluoromethyl)pyrazol-4-yl]imidazole-2-carbonyl]amino]benzoyl]piperazine-1-carbonyl]piperazin-1-ium-1-yl]acetic acid. 1:1 2,2,2-trifluoroacetate] | 269 |
| Cn1c(-c2cn(-c3ccc4[nH]c(CO)cc4n3)nc2C(F)(F)F)cnc1C(=O)Nc1ccc(C(=O)N2CCN(C(=O)C3CC[N+](CCCN)(CC(=O)O)CC3)CC2)c(Cl)c1 (stereo not shown) [Example 145] | 205 |
| Cn1c(-c2cn(-c3cc4[nH]cc(C(=O)NCCO)c4cn3)nc2C(F)(F)F)cnc1C(=O)Nc1ccc(C(=O)N2CCN(C(=O)[C@H]3CC[N@+](CC(=O)O)(CC4CNC4)CC3)CC2)c(Cl)c1 [Example 146, cis-2-[1-(azetidin-3-ylmethyl)-4-[4-[2-chloro-4-[[5-[1-[3-(2-hydroxyethylcarbamoyl)-1H-pyrrolo[3,2-c]pyridin-6-yl]-3-(trifluoromethyl)pyrazol-4-yl]-1-methyl-imidazole-2-carbonyl]amino]benzoyl]piperazine-1-carbonyl]piperidin-1-ium-1-yl]acetic acid. 1:1 2,2,2-trifluoroacetate] | 311 |
| Cn1c(-c2cn(-c3cc4[nH]cc(C(=O)N5CCNCC5)c4cn3)nc2C(F)(F)F)cnc1C(=O)Nc1ccc(C(=O)N2CCN(C(=O)[C@H]3CC[N@+](CC(=O)O)(CC4CNC4)CC3)CC2)c(Cl)c1 [Example 147, cis-2-[1-(azetidin-3-ylmethyl)-4-[4-[2-chloro-4-[[1-methyl-5-[1-[3-(piperazine-1-carbonyl)-1H-pyrrolo[3,2-c]pyridin-6-yl]-4-(trifluoromethyl)pyrazol-4-yl]imidazole-2-carbonyl]amino]benzoyl]piperazine-1-carbonyl]piperidin-1-ium-1-yl]acetic acid. 1:1 2,2,2-trifluoroacetate] | 181 |

Reference: US20250179066A1, “ZWITTERIONIC ANTIBACTERIAL COMPOUNDS” (Hoffmann-La Roche Inc., priority 2022, published 2025)
